Patent publication US9957271B2, “Substituted bicyclic aza-heterocycles and analogues as sirtuin modulators” (GlaxoSmithKline, LLC, priority 2012, dated 2018)

Key:
SIRT1 [1] = target: T1, SIRT1 (Homo sapiens, UniProt Q96EB6); assay: TAMRA based mass spectrometry assay of SIRT1 activity; type: biochemical; settings: for Emax: read-out: TAMRA % Fold Act
T1 sequence (Q96EB6 1-747): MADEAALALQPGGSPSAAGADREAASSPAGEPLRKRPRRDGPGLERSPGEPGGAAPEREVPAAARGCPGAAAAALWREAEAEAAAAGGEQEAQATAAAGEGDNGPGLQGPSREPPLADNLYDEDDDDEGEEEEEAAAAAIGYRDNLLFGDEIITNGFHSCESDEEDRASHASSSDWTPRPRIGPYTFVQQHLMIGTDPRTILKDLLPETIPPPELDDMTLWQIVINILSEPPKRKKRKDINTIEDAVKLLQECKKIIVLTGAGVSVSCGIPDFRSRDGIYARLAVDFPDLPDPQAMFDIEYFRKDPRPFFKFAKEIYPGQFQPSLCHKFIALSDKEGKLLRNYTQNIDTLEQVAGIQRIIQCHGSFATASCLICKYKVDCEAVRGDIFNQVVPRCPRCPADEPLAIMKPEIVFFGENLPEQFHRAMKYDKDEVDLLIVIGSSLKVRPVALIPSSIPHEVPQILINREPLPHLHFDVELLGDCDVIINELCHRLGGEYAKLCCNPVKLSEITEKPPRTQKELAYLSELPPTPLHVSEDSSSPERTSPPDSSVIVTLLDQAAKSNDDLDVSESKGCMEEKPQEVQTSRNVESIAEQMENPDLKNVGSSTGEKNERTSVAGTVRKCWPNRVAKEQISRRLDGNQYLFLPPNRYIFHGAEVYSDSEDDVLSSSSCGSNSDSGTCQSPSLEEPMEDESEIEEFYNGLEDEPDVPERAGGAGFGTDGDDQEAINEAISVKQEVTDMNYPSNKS
Summary of the method: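 Recombinant N-terminal His-tagged human SIRT1 (10 nM, E. coli) incubated 25 min at 25 °C with 0.5 μM 5TMR-labelled p53-derived acetyl-peptide and 120 μM βNAD+ in Tris-acetate pH 8 buffer with DTT and 0.05% BSA, compound at varying concentrations. Stopped with formic acid; deacetylated peptide or OAADPR measured by mass spectrometry relative to DMSO controls.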

SIRT1 [2] = target: T1, SIRT1; assay: Trp mass spectrometry assay of SIRT1 activity; type: biochemical; settings: for Emax: read-out: Trp % Fold Act
Summary of the method: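 His-tagged SIRT1 expressed in E. coli BL21(DE3), 10 nM, incubated 25 min at 25° C. with 0.5 μM Ac-RHKK(Ac)W-NH2 peptide and 120 μM βNAD+ in 50 mM HEPES pH 7.5, […], 1 mM DTT, 0.05% BSA; formic acid stop. OAADPR or deacetylated peptide measured by mass spectrometry; EC1.5 and percent maximum activation versus DMSO control.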

[3] = TAMRA peptide substrate, concentration giving 150% activation of SIRT1
[4] = TAMRA peptide substrate, percent maximum fold activation
[5] = Trp peptide substrate, concentration giving 150% activation of SIRT1
[6] = Trp peptide substrate, percent maximum fold activation
[7] = TAMRA assay, concentration giving 150% activation of SIRT1
[8] = TAMRA assay, percent maximum fold activation
[9] = Trp assay, concentration giving 150% activation of SIRT1
[10] = Trp assay, percent maximum fold activation

Structure (SMILES)	TAMRA EC1.5 (SIRT1 [1]; [3])	Emax (SIRT1 [1]; [4]) [%]	Trp EC1.5 (SIRT1 [2]; [5])	Emax (SIRT1 [2]; [6]) [%]	TAMRA EC1.5 (μM) (SIRT1 [1]; [7])	Emax (SIRT1 [1]; [8]) [%]	Trp EC1.5 (μM) (SIRT1 [2]; [9])	Emax (SIRT1 [2]; [10]) [%]	further results
Cc1nn2ccc(-c3ccccc3C(F)(F)F)nc2c1NC(=O)c1ccncn1 [Compound 572]	C (EC1.5>25 μM)	< 350	C (EC1.5>25 μM)	< 350					
Cc1nc2ccc(-c3cccc(OC[C@H](O)CO)c3)nn2c1C(=O)Nc1ccccn1 [Compound 772, (R)-6-(3-(2,3-dihydroxypropoxy)phenyl)-2-methyl-N-(pyridin-2-yl)imidazo[1,2-b]pyridazine-3-carboxamide]					B (EC1.5 1-25 μM)	≥ 350	B (EC1.5 1-25 μM)	≥ 350	
Cc1ccc(NC(=O)c2c(C)nc3ccc(-c4ccccc4Cl)nn23)nn1 [Compound 742]					A (EC1.5<1 μM)	< 350	C (EC1.5>25 μM)	< 350	
Cc1cc(-c2ccccc2C(F)(F)F)nn2c(C(=O)Nc3ccnc(O[C@@H]4CCOC4)n3)cnc12 [Compound 598]					A (EC1.5<1 μM)	≥ 350	A (EC1.5<1 μM)	≥ 350	
Cc1cc(-c2ccccc2C(F)(F)F)nn2c(NC(=O)c3cccc(N4CCOCC4)n3)cnc12 [Compound 425]	A (EC1.5<1 μM)	≥ 350	A (EC1.5<1 μM)	≥ 350					
O=C(Nc1cccc(N2CCOCC2)n1)c1cnc2ccc(N3CCCC(C(F)(F)F)C3)nn12 (stereo not shown) [Compound 578]	A (EC1.5<1 μM)	≥ 350	A (EC1.5<1 μM)	≥ 350					
COc1cc(NC(=O)c2c(C)nn3ccc(-c4ccccc4C(F)(F)F)nc23)ncn1 [Compound 778]					A (EC1.5<1 μM)	≥ 350	A (EC1.5<1 μM)	< 350	
COc1ccnc(NC(=O)c2cnc3ccc(-c4ccccc4C(F)(F)F)nn23)n1 [Compound 175]									TAMRA EC1.5 (μM) (SIRT1 [1]; concentration of test compound giving 150% activation of SIRT1, TAMRA peptide substrate): A (EC1.5<1 μM); Emax (SIRT1 [1]; percent maximum fold activation of SIRT1, TAMRA peptide substrate): ≥ 350%; Trp EC1.5 (μM) (SIRT1 [2]; concentration of test compound giving 150% activation of SIRT1, Trp peptide substrate): B (EC1.5 1-25 μM); Emax (SIRT1 [2]; percent maximum fold activation of SIRT1, Trp peptide substrate): ≥ 350%
O=C(Nc1ccnc(OCC(F)(F)F)c1)c1cnc2ccc(-c3ccccc3C(F)(F)F)nn12 [Compound 296]					B (EC1.5 1-25 μM)	< 350	B (EC1.5 1-25 μM)	< 350	
Cc1cc(NC(=O)c2cnc3ccc(-c4ccccc4OC(F)(F)F)nn23)ccn1 [Compound 364]					A (EC1.5<1 μM)	≥ 350	A (EC1.5<1 μM)	≥ 350	
O=C(Nc1cnc2ccc(-c3ccccc3C(F)(F)F)nn12)c1ncccc1F [Compound 439]	A (EC1.5<1 μM)	≥ 350	A (EC1.5<1 μM)	< 350					
Cc1nc(C(=O)Nc2cnc3cc(C)c(-c4ccccc4C(F)(F)F)nn23)cs1 [Compound 433]	A (EC1.5<1 μM)	≥ 350	C (EC1.5>25 μM)	< 350					
O=C(Nc1cccc(N2CCOCC2)n1)c1ncn2ccc(-c3ccccc3C(F)(F)F)nc12 [Compound 454]	A (EC1.5<1 μM)	≥ 350	A (EC1.5<1 μM)	≥ 350					
Cc1ccc(NC(=O)c2c(C)nc3ccc(-c4ccccc4C)nn23)nn1 [Compound 694]					B (EC1.5 1-25 μM)	≥ 350	B (EC1.5 1-25 μM)	< 350	
O=C(Nc1cnn2ccc(-c3ccccc3C(F)(F)F)nc12)c1cccc(CN2CCOCC2)n1 [Compound 255]					A (EC1.5<1 μM)	≥ 350	B (EC1.5 1-25 μM)	< 350	
O=C(Nc1nccc(OCC(F)(F)F)n1)c1cnc2ccc(-c3ccccc3C(F)(F)F)nn12 [Compound 311]					A (EC1.5<1 μM)	≥ 350	A (EC1.5<1 μM)	≥ 350	
